The test system of data set [1] is H1N1 (strain PR8). Type of data set: cell-based, murine.
Data set [2] has as its system M2 protein. Type of data set: cell-based, H1N1 (strain PR8).

l = locked nucleic acid (LNA); d = 2'-deoxy (DNA)

On to “LNA-AUG1: LNA (capitals)/DNA CgGtTaGaAgAcTcAtCtTt (CGGTTAGAAGACTCATCTTT; sugars from the 5' end ldldldldldldldldldld, backbone and methylation of C not given here)”, for which the “reduction in viral HA RNA levels” value in data set [1] is listed as “approximately 3 log”. The “effectiveness in the M2 protein expression assay” value in data set [2] is “most effective”.

Take “LNA-AUG12: LNA (capitals)/DNA CgGtTaGaAgAcTcAt (CGGTTAGAAGACTCAT; sugars from the 5' end ldldldldldldldld, backbone and methylation of C not given here)”: the “reduction in viral HA RNA levels” value in data set [1] was “approximately 1.5 log”.

Regarding “2′OMe-AUG2: 2′OMe phosphorothioate oligomer, SEQ ID NO: 20 (ACCTCGGTTAGAAGACTCATCTTTC; all 2'-O-methyl, all phosphorothioate, T or U not given here)”, in data set [1], the “relative effectiveness of the 2′OMe compounds (viral HA RNA; also observed for M2 protein)” value is “most effective”.

As for “LNA-AUG10: LNA (capitals)/DNA gAcTcAtCtT (GACTCATCTT; sugars from the 5' end dldldldldl, backbone and methylation of C not given here)”, the “effectiveness in the viral HA RNA assay” value in data set [1] is given as “least effective”. Moreover, the “effectiveness in the M2 protein expression assay” value in data set [2] is listed as “least effective”.

The values are drawn from patent publication US8697858B2 (priority 2009, dated 2014).
